Experimental data from ChEMBL document CHEMBL1201862, “PubChem BioAssay data set” (2004).
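96-well plates; 48 h exposure; 5 concentrations. Endpoints by linear interpolation between flanking doses. Not reached: highest tested concentration assigned. Here, GI50 denotes the concentration required for 50% inhibition of growth.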 Activity calls are given as the source filed them. No stated cut-off is given here; in the data, active = GI50 up to about 1.1 µM and inactive = higher.

Key:
Test in all cases: NCI-60 cell line screen, 48 h
[1] = tested on: TK-10
[2] = tested on: UO-31
[3] = tested on: A549
[4] = tested on: MOLT-4
[5] = tested on: A498
[6] = tested on: 786-0
[7] = tested on: MDA-N
[8] = tested on: SK-OV-3
[9] = tested on: UACC-257
[10] = tested on: CCRF-CEM
[11] = tested on: ACHN
[12] = tested on: HT-29
[13] = tested on: MDA-MB-231
[14] = tested on: OVCAR-8
[15] = tested on: T47D
[16] = tested on: HL-60
[17] = tested on: Malme-3M
[18] = tested on: K562
[19] = tested on: HOP-92
[20] = tested on: SF-295
[21] = tested on: NCI/ADR-RES
[22] = tested on: SF-539
[23] = tested on: KM12
[24] = tested on: SR
[25] = tested on: SN12C
[26] = tested on: CAKI-1
[27] = tested on: LOX IMVI
[28] = tested on: MCF7
[29] = tested on: SK-MEL-5
[30] = tested on: IGROV-1
[31] = tested on: HCT-116
[32] = tested on: NCI-H23
[33] = tested on: MDA-MB-435
[34] = tested on: BT-549
[35] = tested on: OVCAR-3
[36] = tested on: SK-MEL-28
[37] = tested on: RPMI-8226
[38] = tested on: NCI-H522
[39] = tested on: U-251
[40] = tested on: SNB-19
[41] = tested on: COLO 205
[42] = tested on: SW-620
[43] = tested on: M14
[44] = tested on: SF-268
[45] = tested on: NCI-H226
[46] = tested on: DU-145
[47] = tested on: NCI-H460
[48] = tested on: HOP-62
[49] = tested on: PC-3
[50] = tested on: HCC 2998
[51] = tested on: UACC-62
[52] = tested on: EKVX
[53] = tested on: Hs-578T
[54] = tested on: OVCAR-4
[55] = tested on: RXF 393
[56] = tested on: HCT-15
[57] = tested on: SK-MEL-2
[58] = tested on: OVCAR-5
[59] = tested on: SNB-75

Measured: GI50

O=[N+]([O-])/C(C(Cl)=C(Cl)Cl)=C(/Nc1ccccc1)Sc1ccccc1
19.8 µM: [56]
inactive: [1] 27.7 µM | [2] 14 µM | [3] 23.4 µM | [4] 19.8 µM | [5] 20.8 µM | [6] 21.7 µM | [7] 24.9 µM | [8] 20.1 µM | [9] 16.6 µM | [10] 16.8 µM | [11] 19.1 µM | [12] 22.6 µM | [13] 15.7 µM | [14] 17.7 µM | [15] 19.7 µM | [16] 20.6 µM | [17] 15.9 µM | [18] 20.6 µM | [19] 32.8 µM | [20] 16.5 µM | [21] 24.4 µM | [22] 24.9 µM | [23] 18.2 µM | [24] 20.7 µM | [25] 26.9 µM | [26] 13.5 µM | [27] 15.7 µM | [28] 28.5 µM | [29] 20.3 µM | [30] 19.9 µM | [31] 18.5 µM | [32] 18.7 µM | [33] 18.1 µM | [34] 25.5 µM | [35] 15.7 µM | [36] 19.7 µM | [37] 32.6 µM | [38] 16.2 µM | [39] 14.6 µM | [40] 17.5 µM | [41] 18.5 µM | [42] 25.1 µM | [43] 19.8 µM | [44] 14 µM | [45] 23 µM | [46] 21.1 µM | [47] 18.4 µM | [48] 19.5 µM | [49] 18.5 µM | [50] 18.5 µM | [51] 19.9 µM | [52] 19.6 µM | [53] 40.4 µM | [54] 19.7 µM | [55] 19.8 µM

COC1C=C(NCC2(CO)CCC2)N=C(N)N1 (configuration not stated)
> 100 µM: [56]
inactive: [2] > 100 µM | [3] > 100 µM | [4] > 100 µM | [5] 95.1 µM | [6] > 100 µM | [7] > 100 µM | [8] > 100 µM | [9] > 100 µM | [10] > 100 µM | [12] > 100 µM | [57] > 100 µM | [13] 56.6 µM | [14] > 100 µM | [15] > 100 µM | [16] > 100 µM | [17] > 100 µM | [18] > 100 µM | [19] > 100 µM | [20] > 100 µM | [21] > 100 µM | [23] > 100 µM | [24] > 100 µM | [25] > 100 µM | [26] > 100 µM | [27] > 100 µM | [28] 95.1 µM | [29] > 100 µM | [30] > 100 µM | [31] > 100 µM | [32] 24.8 µM | [33] > 100 µM | [34] > 100 µM | [35] > 100 µM | [36] > 100 µM | [37] > 100 µM | [58] > 100 µM | [38] > 100 µM | [39] > 100 µM | [40] > 100 µM | [41] > 100 µM | [42] > 100 µM | [59] > 100 µM | [43] > 100 µM | [44] > 100 µM | [45] > 100 µM | [46] > 100 µM | [47] > 100 µM | [48] > 100 µM | [49] > 100 µM | [50] > 100 µM | [51] > 100 µM | [52] > 100 µM | [53] > 100 µM | [54] > 100 µM | [55] > 100 µM
